From patent US12410208B2, “(2-acetamidyl)thio-beta-D-galactopyranoside derivatives” (Idorsia Pharmaceuticals Ltd, priority 2020, dated 2025)
Read-outs that look alike come from different tables or passages of the source. Values belong to the molecule of their own block, whether it stands above or below them.

How the values were obtained:
[1] = target: biotinylated human Gal-3 (hGal-3) (Homo sapiens, UniProt P17931); assay: Competitive binding assay: biotinylated hGal-3 binding to microplate-adsorbed asialofetuin (ASF), spectrophotometric
biotinylated human Gal-3 (hGal-3), sequence (P17931 whole entry): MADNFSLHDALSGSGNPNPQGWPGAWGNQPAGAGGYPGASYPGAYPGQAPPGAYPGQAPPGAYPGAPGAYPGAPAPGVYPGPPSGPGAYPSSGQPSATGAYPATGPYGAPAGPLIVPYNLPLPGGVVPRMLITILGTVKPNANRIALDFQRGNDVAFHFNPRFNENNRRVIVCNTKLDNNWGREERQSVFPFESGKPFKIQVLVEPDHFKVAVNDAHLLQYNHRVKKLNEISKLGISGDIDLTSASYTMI
Method: If not explicitly mentioned otherwise, the inhibition data refer to the binding of biotinylated human Gal-3 (hGal-3).
(§1) Biological Assay Evaluation of Compound Inhibitory Activity (IC50)
The inhibitory activity of compounds is determined in competitive binding assays.
Briefly, compounds are serially diluted in DMSO (working dilutions).
(§2) Plates are incubated for 3 hours at 4° C., then washed with cold assay buffer (3×50 uL), incubated for 1 hour with 25 μL/well of a streptavidin-peroxidase solution (diluted in assay buffer to 80 ng/mL) at 4° C., followed by further washing steps with assay buffer (3×50 uL). Finally, 25 μL/well of ABTS substrate is added.
(§3) The calculated IC50 values may fluctuate depending on the daily assay performance. Fluctuations of this kind are known to those skilled in the art. IC50 values from several measurements are given as mean values.

human Gal-1 (hGal-1) = human Gal-1 (hGal-1) (Homo sapiens, UniProt P09382); assay: Competitive binding assay: biotinylated hGal-1 binding to microplate-adsorbed asialofetuin (ASF), spectrophotometric; details: hGal-1 binding to asialofetuin; Table 15; R and S epimers of selected Examples also listed; read-out: IC50 (Galectin-1 inhibition)
human Gal-1 (hGal-1), sequence (P09382 whole entry): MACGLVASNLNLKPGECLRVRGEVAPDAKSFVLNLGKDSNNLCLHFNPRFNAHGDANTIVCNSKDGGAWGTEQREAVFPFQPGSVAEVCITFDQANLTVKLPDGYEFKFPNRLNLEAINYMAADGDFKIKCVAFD
Method: as §1
The inhibitory activity of compounds is determined in competitive binding assays. This spectrophotometric assay measures the binding of biotinylated human Gal-3 (hGal-3) or human Gal-1 (hGal-1), respectively, to a microplate-adsorbed glycoprotein, asialofetuin (ASF) (Proc Natl Acad Sci USA. 2013 Mar. 26; 110(13):5052-7.).
Briefly, compounds are serially diluted in DMSO (working dilutions). ASF-coated 384well plates are supplemented with 22.8 μL/well of biotinylated hGal-3 or hGal-1 in assay buffer (i.e. 300-1000 ng/mL biotinylated hGal-3 or hGal-1) to which 1.2 μL of compound working dilutions are added and mixed.
as §2, §3

[2] = Gal-3 inhibition, Table 7, read-out: IC50
[3] = Gal-3 inhibition, Table 4, read-out: IC50
[4] = Table 11, hGal-3, read-out: IC50 (Gal-3 inhibition)
[5] = Table 12, hGal-3, read-out: IC50 (Gal-3 inhibition)
[6] = Table 6, hGal-3, read-out: IC50 (Gal-3 inhibition)

IC50 [1, 2]: 220 nM
Molecule: CCN(C)C(=O)C(S[C@@H]1O[C@H](CO)[C@H](O)[C@H](n2cc(-c3cc(F)c(F)c(F)c3)nn2)[C@H]1O)C(O)Cc1ccccc1 (stereo partly drawn) [Example 2.64.203., 2-(((2S,3R,4S,5R,6R)-3,5-Dihydroxy-6-(hydroxymethyl)-4-(4-(3,4,5-trifluorophenyl)-1H-1,2,3-triazol-1-yl)tetrahydro-2H-pyran-2-yl)thio)-N-ethyl-3-hydroxy-N-methyl-4-phenylbutanamide]

IC50 (human Gal-1 (hGal-1)): 830 nM
Molecule: CO[C@@H]1[C@@H](n2cc(-c3cc(F)c(F)c(F)c3)nn2)[C@@H](O)[C@@H](CO)O[C@H]1SC(C(=O)NC1CCC(C)(C)CC1)C1(O)CCC(F)(F)CC1 (stereo partly drawn) [Example 2.44.255.I., 2-(4,4-Difluoro-1-hydroxycyclohexyl)-N-(4,4-dimethylcyclohexyl)-2-(((2S,3R,4S,5R,6R)-5-hydroxy-6-(hydroxymethyl)-3-methoxy-4-(4-(3,4,5-trifluorophenyl)-1H-1,2,3-triazol-1-yl)tetrahydro-2H-pyran-2-yl)thio)acetamide]

IC50 [1, 4]: 50 nM
Molecule: Cc1cc(-c2cn([C@H]3[C@@H](O)[C@@H](CO)O[C@@H](S[C@H](C(=O)N(C)C4CC4)C4(O)CCC(F)(F)CC4)[C@@H]3O)nn2)cnc1F [Example 21.44.221S, (S)-N-Cyclopropyl-2-(4,4-difluoro-1-hydroxycyclohexyl)-2-(((2S,3R,4S,5R,6R)-4-(4-(6-fluoro-5-methylpyridin-3-yl)-1H-1,2,3-triazol-1-yl)-3,5-dihydroxy-6-(hydroxymethyl)tetrahydro-2H-pyran-2-yl)thio)-N-methylacetamide]

IC50 (human Gal-1 (hGal-1)): 1460 nM
Molecule: CCN(C)C(=O)C(S[C@@H]1O[C@H](CO)[C@H](O)[C@H](n2cc(-c3cc(F)c(F)c(F)c3)nn2)[C@H]1O)C(O)Cc1ccccc1 (stereo partly shown) [Example 2.64.203]

IC50 (human Gal-1 (hGal-1)): 200 nM
Molecule: CCC(O)C(S[C@@H]1O[C@H](CO)[C@H](O)[C@H](n2cc(-c3cc(F)c(F)c(F)c3)nn2)[C@H]1O)C(=O)N(C)CC1CC1 (stereo partly shown) [Example 2.60.218]

IC50 (human Gal-1 (hGal-1)): 70 nM
Molecule: Cc1cc(-c2cn([C@H]3[C@@H](O)[C@@H](CO)O[C@@H](S[C@H](C(=O)N(C)C4CC4)C4(O)CCC(F)(F)CC4)[C@@H]3O)nn2)cnc1F [Example 21.44.221S., (S)-N-Cyclopropyl-2-(4,4-difluoro-1-hydroxycyclohexyl)-2-(((2S,3R,4S,5R,6R)-4-(4-(6-fluoro-5-methylpyridin-3-yl)-1H-1,2,3-triazol-1-yl)-3,5-dihydroxy-6-(hydroxymethyl)tetrahydro-2H-pyran-2-yl)thio)-N-methylacetamide]

IC50 [1, 5]: 390 nM
Molecule: CO[C@@H]1[C@@H](n2cc(-c3cc(F)c(F)c(F)c3)nn2)[C@@H](O)[C@@H](CO)O[C@H]1SC(C(=O)NC1CCC(C)(C)CC1)C1(O)CCC(F)(F)CC1 (stereo partly drawn) [Example 2.44.255.I, 2-(4,4-Difluoro-1-hydroxycyclohexyl)-N-(4,4-dimethylcyclohexyl)-2-(((2S,3R,4S,5R,6R)-5-hydroxy-6-(hydroxymethyl)-3-methoxy-4-(4-(3,4,5-trifluorophenyl)-1H-1,2,3-triazol-1-yl)tetrahydro-2H-pyran-2-yl)thio)acetamide]

IC50 [1, 4]: 230 nM
Molecule: Cc1cc(-c2cn([C@H]3[C@@H](O)[C@@H](CO)O[C@@H](S[C@@H](C(=O)N(C)C4CC4)C4(O)CCC(F)(F)CC4)[C@@H]3O)nn2)cnc1F [Example 21.44.221R, (R)-N-Cyclopropyl-2-(4,4-difluoro-1-hydroxycyclohexyl)-2-(((2S,3R,4S,5R,6R)-4-(4-(6-fluoro-5-methylpyridin-3-yl)-1H-1,2,3-triazol-1-yl)-3,5-dihydroxy-6-(hydroxymethyl)tetrahydro-2H-pyran-2-yl)thio)-N-methylacetamide]

IC50 [1, 2]: 120 nM
Molecule: CCC(O)C(S[C@@H]1O[C@H](CO)[C@H](O)[C@H](n2cc(-c3cc(F)c(F)c(F)c3)nn2)[C@H]1O)C(=O)N(C)CC1CC1 (stereo partly drawn) [Example 2.60.218., N-(Cyclopropylmethyl)-2-(((2S,3R,4S,5R,6R)-3,5-dihydroxy-6-(hydroxymethyl)-4-(4-(3,4,5-trifluorophenyl)-1H-1,2,3-triazol-1-yl)tetrahydro-2H-pyran-2-yl)thio)-3-hydroxy-N-methylpentanamide]

IC50 (human Gal-1 (hGal-1)): 220 nM
Molecule: Cc1cc(-c2cn([C@H]3[C@@H](O)[C@@H](CO)O[C@@H](S[C@@H](C(=O)N(C)C4CC4)C4(O)CCC(F)(F)CC4)[C@@H]3O)nn2)cnc1F [Example 21.44.221R., (R)-N-Cyclopropyl-2-(4,4-difluoro-1-hydroxycyclohexyl)-2-(((2S,3R,4S,5R,6R)-4-(4-(6-fluoro-5-methylpyridin-3-yl)-1H-1,2,3-triazol-1-yl)-3,5-dihydroxy-6-(hydroxymethyl)tetrahydro-2H-pyran-2-yl)thio)-N-methylacetamide]

IC50 ([1]; Table 10, hGal-3, read-out: IC50 (Gal-3 inhibition)): 40 nM
Molecule: CCN(C(=O)C(S[C@@H]1O[C@H](CO)[C@H](O)[C@H](n2cc(-c3cc(F)c(F)c(F)c3)nn2)[C@H]1OC)C1(O)CCC(F)(F)CC1)C1CC1 (stereo partly shown) [Example 2.44.238.I.]

Second part, the molecule before the results:

Molecule: CCN(C)C(=O)[C@H](S[C@@H]1O[C@H](CO)[C@H](O)[C@H](n2cc(-c3cc(F)c(F)c(F)c3)nn2)[C@H]1O)C(C)(C)O [Example 2.31.203R., (R)-2-(((2S,3R,4S,5R,6R)-3,5-Dihydroxy-6-(hydroxymethyl)-4-(4-(3,4,5-trifluorophenyl)-1H-1,2,3-triazol-1-yl)tetrahydro-2H-pyran-2-yl)thio)-N-ethyl-3-hydroxy-N,3-dimethylbutanamide]
IC50 ([1]; Gal-3 inhibition, Table 3, read-out: IC50): 3880 nM

Molecule: O=C([C@H](S[C@@H]1O[C@H](CO)[C@H](O)[C@H](n2cc(-c3cc(F)c(F)c(F)c3)nn2)[C@H]1O)C1(O)CCOCC1)N1CCc2ccccc21 [Example 2.41.209R., (R)-2-(((2S,3R,4S,5R,6R)-3,5-Dihydroxy-6-(hydroxymethyl)-4-(4-(3,4,5-trifluorophenyl)-1H-1,2,3-triazol-1-yl)tetrahydro-2H-pyran-2-yl)thio)-2-(4-hydroxytetrahydro-2H-pyran-4-yl)-1-(indolin-1-yl)ethan-1-one]
IC50 [1, 3]: 1310 nM

Molecule: CC(C)(O)[C@@H](S[C@@H]1O[C@H](CO)[C@H](O)[C@H](n2cc(-c3cc(F)c(F)c(F)c3)nn2)[C@H]1O)C(=O)N1CCCC1 [Example 2.31.211R, (R)-2-(((2S,3R,4S,5R,6R)-3,5-Dihydroxy-6-(hydroxymethyl)-4-(4-(3,4,5-trifluorophenyl)-1H-1,2,3-triazol-1-yl)tetrahydro-2H-pyran-2-yl)thio)-3-hydroxy-3-methyl-1-(pyrrolidin-1-yl)butan-1-one]
IC50 (human Gal-1 (hGal-1)): 2150 nM

Molecule: CO[C@@H]1[C@@H](n2cc(-c3cc(F)c(F)c(F)c3)nn2)[C@@H](O)[C@@H](CO)O[C@H]1SC(C(=O)N(C)C1CC(F)(F)C1)C1(O)CCC(F)(F)CC1 (stereo partly drawn) [Example 2.44.237.I., 2-(4,4-Difluoro-1-hydroxycyclohexyl)-N-(3,3-difluorocyclobutyl)-2-(((2S,3R,4S,5R,6R)-5-hydroxy-6-(hydroxymethyl)-3-methoxy-4-(4-(3,4,5-trifluorophenyl)-1H-1,2,3-triazol-1-yl)tetrahydro-2H-pyran-2-yl)thio)-N-methylacetamide]
IC50 [1, 5]: 90 nM

Molecule: (R)-2-(4,4-Difluoro-1-hydroxycyclohexyl)-2-(((2S,3R,4S,5R,6R)-3,5-dihydroxy-6-(hydroxymethyl)-4-(4-(3,4,5-trifluorophenyl)-1H-1,2,3-triazol-1-yl)tetrahydro-2H-pyran-2-yl)thio)-1-(piperidin-1-yl)ethan-1-one [Example 2.44.208R.]
IC50 ([1]; Gal-3 inhibition, Table 5, read-out: IC50): 3360 nM

Molecule: CC(C)(O)[C@@H](S[C@@H]1O[C@H](CO)[C@H](O)[C@H](n2cc(-c3cc(F)c(F)c(F)c3)nn2)[C@H]1O)C(=O)N1CCCC1 [Example 2.31.211R., (R)-2-(((2S,3R,4S,5R,6R)-3,5-Dihydroxy-6-(hydroxymethyl)-4-(4-(3,4,5-trifluorophenyl)-1H-1,2,3-triazol-1-yl)tetrahydro-2H-pyran-2-yl)thio)-3-hydroxy-3-methyl-1-(pyrrolidin-1-yl)butan-1-one]
IC50 [1, 6]: 310 nM

Molecule: CC(C)(O)[C@H](S[C@@H]1O[C@H](CO)[C@H](O)[C@H](n2cc(-c3cc(F)c(F)c(F)c3)nn2)[C@H]1O)C(=O)N1CCCC1 [Example 2.31.211S, (S)-2-(((2S,3R,4S,5R,6R)-3,5-Dihydroxy-6-(hydroxymethyl)-4-(4-(3,4,5-trifluorophenyl)-1H-1,2,3-triazol-1-yl)tetrahydro-2H-pyran-2-yl)thio)-3-hydroxy-3-methyl-1-(pyrrolidin-1-yl)butan-1-one]
IC50 [1, 6]: 80 nM

Molecule: CN(CCC1CCOCC1)C(=O)[C@H](S[C@@H]1O[C@H](CO)[C@H](O)[C@H](n2cc(-c3cc(F)c(F)c(F)c3)nn2)[C@H]1O)C1(O)CCOCC1 [Example 2.41.216R., (R)-2-(((2S,3R,4S,5R,6R)-3,5-Dihydroxy-6-(hydroxymethyl)-4-(4-(3,4,5-trifluorophenyl)-1H-1,2,3-triazol-1-yl)tetrahydro-2H-pyran-2-yl)thio)-2-(4-hydroxytetrahydro-2H-pyran-4-yl)-N-methyl-N-(2-(tetrahydro-2H-pyran-4-yl)ethyl)acetamide]
IC50 [1, 3]: 1530 nM
